Experimental data published in the supplement of paper PMC4862054.

Tests used:
Test in all cases: normalised viability (% of control), CellTiter-Blue; higher = more viable cells (about 100 = DMSO control)
BT-549 = conditions: incubation time: 72 h
Method in brief: (§1)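 After 72 h on compound-loaded 384-well plates, breast cancer cell lines received 2.5 µl CellTiter-Blue reagent for 2 h at 37 °C. Fluorescence at 560/590 nm was scaled per plate so that vehicle was 100 and a positive kill control was 0. The value stands for normalised viability at a single listed concentration of the series.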

BT-474 = conditions: incubation time: 72 h
Method in brief: as §1

SK-BR-3 = conditions: incubation time: 72 h
Method in brief: as §1

Hs578T [1] = conditions: incubation time: 72 h
Method in brief: as §1

HCC1143 = conditions: incubation time: 72 h
Method in brief: as §1

MDA-MB-468 [2] = conditions: incubation time: 72 h
Method in brief: as §1

HCC1599 [3] = conditions: incubation time: 72 h
Method in brief: as §1

CAL-148 [4] = conditions: incubation time: 72 h
Method in brief: as §1

MDA-MB-453 = conditions: incubation time: 72 h
Method in brief: as §1

CAL-85-1 [5] = conditions: incubation time: 72 h
Method in brief: as §1

HDQ-P1 [6] = conditions: incubation time: 72 h
Method in brief: as §1

HCC1937 = conditions: incubation time: 72 h
Method in brief: as §1

MFM-223 = conditions: incubation time: 72 h
Method in brief: as §1

DU-4475 = conditions: incubation time: 72 h
Method in brief: as §1

CAL-51 [7] = conditions: incubation time: 72 h
Method in brief: as §1

CAL-120 [8] = conditions: incubation time: 72 h
Method in brief: as §1

MDA-MB-231 = conditions: incubation time: 72 h
Method in brief: as §1

MDA-MB-436 [9] = conditions: incubation time: 72 h
Method in brief: as §1

Hs578T [10] = conditions: 100 nM; incubation time: 72 h
Method in brief: as §1

MDA-MB-468 [11] = conditions: 100 nM; incubation time: 72 h
Method in brief: as §1

HCC1599 [12] = conditions: 100 nM; incubation time: 72 h
Method in brief: as §1

CAL-148 [13] = conditions: 10 nM; incubation time: 72 h
Method in brief: as §1

CAL-85-1 [14] = conditions: 10 nM; incubation time: 72 h
Method in brief: as §1

HDQ-P1 [15] = conditions: 10 nM; incubation time: 72 h
Method in brief: as §1

CAL-51 [16] = conditions: 10 nM; incubation time: 72 h
Method in brief: as §1

CAL-120 [17] = conditions: 100 nM; incubation time: 72 h
Method in brief: as §1

MDA-MB-436 [18] = conditions: 100 nM; incubation time: 72 h
Method in brief: as §1

C[C@]12C=CC(=O)C=C1CC[C@@H]1[C@@H]2[C@@H](O)C[C@@]2(C)[C@H]1CC[C@]2(O)C(=O)CO [Prednisolone]
normalised viability [%]
Conditions | 3 nM | 10 nM | 30 nM | 100 nM | 1000 nM | 10000 nM
BT-474 | – | 125 | – | – | 98.8 | 100
BT-549 | – | 111 | – | – | 92.2 | 105
CAL-51 [7] | 102 | – | 98.3 | 98.4 | – | –
CAL-85-1 [5] | 101 | – | 105 | 119 | – | –
CAL-120 [8] | – | 87.5 | – | – | 73.7 | 86.8
CAL-148 [4] | 93.8 | – | 118 | 107 | – | –
DU-4475 | 107 | – | 116 | 98.1 | – | –
HCC1143 | – | 98 | – | – | 87.9 | 96.3
HCC1599 [3] | – | 111 | – | – | 92.2 | 84.9
HCC1937 | – | 91.7 | – | – | 108 | 99.1
HDQ-P1 [6] | 112 | – | 124 | 108 | – | –
Hs578T [1] | – | 111 | – | – | 107 | 107
MDA-MB-231 | – | 113 | – | – | 129 | 117
MDA-MB-436 [9] | – | 82.4 | – | – | 73.5 | 108
MDA-MB-453 | 107 | – | 106 | 95.5 | – | –
MDA-MB-468 [2] | – | 102 | – | – | 115 | 101
MFM-223 | – | 95.7 | – | – | 100 | 96.9
SK-BR-3 | – | 114 | – | – | 101 | 89.3

Conditions | normalised viability [%]
CAL-51 [16] | 98.4
CAL-85-1 [14] | 109
CAL-120 [17] | 79.9
CAL-148 [13] | 111
HCC1599 [12] | 102
HDQ-P1 [15] | 108
Hs578T [10] | 81.3
MDA-MB-436 [18] | 96.6
MDA-MB-468 [11] | 108
